≈ marks a conversion by molar mass, not a printed value.
Key:
[1] = tested on: MG63 (osteosarcoma); assay: MTT growth inhibition of human solid tumor cells, 72 h; assay type: cell-based
Method in brief: (§1)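 MTT determination of viable cells gives percent viability, normalised to untreated wells taken as 100%. Cells (4000 per well) grew 24 h in serum-supplemented DMEM high glucose, then faced graded compound concentrations for 72 h at 37° C under 5% CO2.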

[2] = tested on: SK-OV-3 (ovarian cancer cell); assay: as above; assay type: cell-based
Method in brief: as §1

[3] = tested on: PC-3 (prostate cancer); assay: as above; assay type: cell-based
Method in brief: as §1

[4] = tested on: Becap37 (human breast cancer cell); assay: as above; assay type: cell-based; details: Homo sapiens
Method in brief: as §1

[5] = tested on: RKO (human colon adenocarcinoma cell); assay: as above; assay type: cell-based
Method in brief: as §1

[6] = tested on: CNE (nasopharyngeal carcinoma cell); assay: as above; assay type: cell-based; details: Homo sapiens, MTT
Method in brief: as §1

[7] = tested on: A549 (human lung cancer); assay: as above; assay type: cell-based; details: Homo sapiens, A549
Method in brief: as §1

[8] = tested on: MGC 803 (human gastric cancer cell); assay: as above; assay type: cell-based; details: Homo sapiens, MGC-803
Method in brief: as §1

[9] = tested on: CaES-17 (esophageal cancer cell); assay: as above; assay type: cell-based; details: Homo sapiens, CaEs17
Method in brief: as §1

[10] = tested on: Huh7 (human liver cancer cell); assay: as above; assay type: cell-based; details: Homo sapiens, Huh-7
Method in brief: as §1

[11] = tested on: PANC-1 (pancreatic cancer); assay: as above; assay type: cell-based
Method in brief: as §1

[12] = tested on: Hep-2 (laryngeal carcinoma); assay: as above; assay type: cell-based; details: Homo sapiens, HEp-2
Method in brief: as §1

[13] = tested on: U87 MG (malignant glioma cell); assay: as above; assay type: cell-based; details: Homo sapiens, U-87 MG
Method in brief: as §1

[14] = tested on: Hela (human cervical cancer cell); assay: as above; assay type: cell-based
Method in brief: as §1

[15] = tested on: MGC-803 transplanted tumor of gastric cancer; assay: Inhibition of transplanted tumor of gastric cancer in BALB/c-nu nude mice; assay type: in vivo; details: for Mass of tumor / Tumor Inhibition rate (%): MGC-803 in BALB/c-nu nude mice, 10 days, Day 27
Description: Gastric cancer cell lines: MGC-803
Animal: BALB/c-nu nude mice, 8 weeks, female, purchased from Shanghai Laboratory Animal Center of Chinese Academy of Sciences, China.
BS-HH-002, wherein BS-HH-002-0.1 indicates a dosage of 0.1 mg/kg each time, BS-HH-002-0.3 indicates a dosage of 0.3 mg/kg each time, BS-HH-002-0.5 indicates a dosage of 0.5 mg/kg each time, and BS-HH-002-1.0 indicates a dosage of 1.0 mg/kg each time.
Under sterile conditions, the above tumor cells in logarithmic growth phase are collected and injected in an amount of 2×10^7/0.2 ml/nude mice (cell viability>95%) into the right subaxillary of the nude mice by subcutaneous injection, thus establishing a BALB/c-nu nude mice model bearing transplanted tumor of gastric cancer. The mice are administered on the third day after the inoculation, wherein the experimental groups are intragastrically administered in an experimentally designed amount, and the negative control group is intragastrically administered with sterile water. Administration takes place at 8:00 for one time a day, at 8:00 and 14:00 for twice a day, and at 8:00, 14:00 and 20:00 with 6-hour intervals for three times day. The administrations are successive for 10 days. The day before administration is Day 0 and the weight and tumor size are determined approximately every 5 days to produce a plot on weight and tumor growth. On Day 27, the mice are dissected and the tumors are taken out and weighed. Based on a tumor inhibition rate of zero for the control group, the tumor inhibition rate (%) after the effect of the medicament is calculated.
The values determined are presented as mean±standard error (M±SD). The experimental data for each group are analyzed by the One-way ANOVA method of SPSS 18.0 Statistical Software, and p<0.05 is deemed as having statistically significant difference.

[16] = 0.1 mg/kg/time, 1 time/day intragastric
[17] = 0.1 mg/kg/time, 2 times/day intragastric
[18] = 0.1 mg/kg/time, 3 times/day intragastric
[19] = 0.3 mg/kg/time, 1 time/day intragastric
[20] = 0.5 mg/kg/time, 1 time/day intragastric
[21] = 0.5 mg/kg/time, 2 times/day intragastric
[22] = 0.5 mg/kg/time, 3 times/day intragastric
[23] = 1.0 mg/kg/time, 1 time/day intragastric
[24] = 1.0 mg/kg/time, 3 times/day intragastric

`COC(=O)C[C@](O)(CCCC(C)(C)OC(C)=O)C(=O)O[C@@H]1C(OC)=C[C@]23CCCN2CCc2cc4c(cc2[C@H]13)OCO4` [BS-HH-002, 6-acetylhomoharringtonine] was tested, and the IC50 ([1]; Homo sapiens, MG-63, MTT) was 0.006 µg/mL (≈ 0.0102 µM), the IC90 ([1]; Homo sapiens, MG-63, MTT) was 0.42 µg/mL (≈ 0.715 µM) and the “anti-MG63 effect relative to homoharringtonine” value ([1]; vs HHT) was “substantially superior”. The IC50 ([2]; Homo sapiens, SK-OV-3, MTT) was 0.05 µg/mL (≈ 0.0851 µM), the IC90 ([2]; Homo sapiens, SK-OV-3, MTT) was over 16 µg/mL and the “anti-SK-OV-3 effect relative to homoharringtonine” value ([2]; vs HHT) was 2 fold. For the same compound, the IC50 ([3]; Homo sapiens, MTT) was 0.013 µg/mL (≈ 0.0221 µM), the IC90 ([3]; Homo sapiens, MTT) was over 16 µg/mL and the “anti-PC-3 effect relative to homoharringtonine” value ([3]; vs HHT) was “more than 6 fold”. For the same compound, the IC50 [4] was 0.005 µg/mL (≈ 0.00851 µM), the IC90 [4] was 16 µg/mL (≈ 27.2 µM) and the IC50 ([5]; Homo sapiens, MTT) was 0.002 µg/mL (≈ 0.0034 µM). For the same compound, the IC90 ([5]; Homo sapiens, MTT) was 0.01 µg/mL (≈ 0.017 µM), the “anti-RKO effect relative to homoharringtonine” value ([5]; vs HHT) was “substantially superior” and the IC50 [6] was 0.024 µg/mL (≈ 0.0408 µM). For the same compound, the IC90 [6] was over 16 µg/mL, the IC50 [7] was 0.013 µg/mL (≈ 0.0221 µM) and the IC90 [7] was over 16 µg/mL. For the same compound, the IC50 [8] was 0.008 µg/mL (≈ 0.0136 µM), the IC90 [8] was 0.056 µg/mL (≈ 0.0953 µM) and the IC50 [9] was 0.02 µg/mL (≈ 0.034 µM). The IC90 [9] was over 16 µg/mL, the IC50 [10] was 0.0021 µg/mL (≈ 0.00357 µM) and the IC90 [10] was 0.018 µg/mL (≈ 0.0306 µM). For the same compound, the IC50 ([11]; Homo sapiens, PANC-1, MTT) was 0.012 µg/mL (≈ 0.0204 µM), the IC90 ([11]; Homo sapiens, PANC-1, MTT) was over 16 µg/mL and the “anti-PANC-1 effect relative to homoharringtonine” value ([11]; vs HHT) was “more than 3 fold”. It also gave an IC50 [12] of 0.0037 µg/mL (≈ 0.0063 µM), an IC90 [12] of over 16 µg/mL and an IC50 [13] of 0.002 µg/mL (≈ 0.0034 µM). The IC90 [13] was 0.012 µg/mL (≈ 0.0204 µM), the IC50 ([14]; Homo sapiens, HeLa, MTT) was 0.0077 µg/mL (≈ 0.0131 µM) and the IC90 ([14]; Homo sapiens, HeLa, MTT) was 16 µg/mL (≈ 27.2 µM). For the same compound, the “anti-Hela effect relative to homoharringtonine” value ([14]; vs HHT) was “more than 2.5 fold”, the “tumor inhibition rate on gastric cancer” value ([15]; BALB/c-nu nude mice, all dosing regimes 0.1-1.0 mg/kg) was “more than 40%” and the “Mass of tumor” value [15, 16] was 0.40 ± 0.18 g. The “Tumor Inhibition rate (%)” value [15, 16] was 48.97%, the “Mass of tumor” value [15, 17] was 0.46 ± 0.11 g and the “Tumor Inhibition rate (%)” value [15, 17] was 40.90%. The “Mass of tumor” value [15, 18] was 0.41 ± 0.09 g, the “Tumor Inhibition rate (%)” value [15, 18] was 48.14% and the “Mass of tumor” value [15, 19] was 0.38 ± 0.13 g. The “Tumor Inhibition rate (%)” value [15, 19] was 51.76%, the “Mass of tumor” value [15, 20] was 0.44 ± 0.13 g and the “Tumor Inhibition rate (%)” value [15, 20] was 43.81%. For the same compound, the “Mass of tumor” value [15, 21] was 0.44 ± 0.18 g, the “Tumor Inhibition rate (%)” value [15, 21] was 43.43% and the “Mass of tumor” value [15, 22] was 0.37 ± 0.18 g. For the same compound, the “Tumor Inhibition rate (%)” value [15, 22] was 52.12%, the “Mass of tumor” value [15, 23] was 0.43 ± 0.17 g and the “Tumor Inhibition rate (%)” value [15, 23] was 44.58%. For the same compound, the “Mass of tumor” value [15, 24] was 0.34 ± 0.05 g and the “Tumor Inhibition rate (%)” value [15, 24] was 56.67%.
